Experiments:
Settings in all cases: stereoisomer not certain
[1] = RP, Waters ACQUITY UPLC BEH C18, 100 × 2.1 mm, 1.7 µm, 65 °C, 0.4 mL/min, estimated dead time 0.55 min; A: water + 0.1% formic acid, pH 3; B: 80% acetonitrile + 20% acetone + 0.1% formic acid, pH 3; gradient (min/%B) 0/0 5/100 5.5/0 6/0
[2] = RP, Phenomenex Luna C18, 150 × 4.6 mm, 3 µm, 25 °C, 0.5 mL/min, estimated dead time 3.2 min; A: water + 0.1% formic acid, pH 3; B: acetonitrile + 0.1% formic acid, pH 3; gradient (min/%B) 0/0 30/30 35/40 50/80 52/80 60/0 65/0
[3] = RP, Agilent ZORBAX Eclipse XDB-C18, 100 × 2.1 mm, 1.8 µm, 50 °C, 0.4 mL/min, estimated dead time 0.55 min; A: water + 0.1% formic acid, pH 3; B: methanol + 0.1% formic acid, pH 3; gradient (min/%B) 0/2 10/100 14.5/100 14.51/2 16.5/2
[4] = RP, Waters ACQUITY UPLC BEH Shield RP18, 150 × 2.1 mm, 1.7 µm, 40 °C, 0.4 mL/min, estimated dead time 0.83 min; A: water + 0.1% formic acid, pH 3; B: acetonitrile + 0.1% formic acid, pH 3; gradient (min/%B) 0/0 30/50 31/100 37/100 37.1/0
[5] = RP, 150 × 2.1 mm, 2.6 µm, 40 °C, 0.35 mL/min, estimated dead time 0.94 min; A: water + 0.1% formic acid, pH 3; B: acetonitrile + 0.1% formic acid, pH 3; gradient (min/%B) 0/0 1/5 7/45 8.5/80 10.5/80 11/5 12/5
[6] = RP, Phenomenex Synergi Hydro-RP, 250 × 2 mm, 4 µm, 25 °C, 0.2 mL/min, estimated dead time 2.5 min; A: water + 0.1% formic acid, pH 3; B: acetonitrile + 0.1% formic acid, pH 3; gradient (min/%B) 0/0.5 7/0.5 12/12.5 25/16.3 47/35 48/65 50/65 50.1/0.5
[7] = RP, 150 × 2.1 mm, 2.6 µm, 40 °C, 0.35 mL/min, estimated dead time 0.94 min; A: water + 0.1% formic acid, pH 3; B: acetonitrile + 0.1% formic acid, pH 3; gradient (min/%B) 0/0 1/0 12.5/100 14/100 14.2/0 15/0
[8] = RP, Waters ACQUITY UPLC BEH Shield RP18, 100 × 2.1 mm, 1.7 µm, 30 °C, 0.6 mL/min, estimated dead time 0.37 min; A: water + 0.1% formic acid, pH 3; B: acetonitrile + 0.1% formic acid, pH 3; gradient (min/%B) 0/0 2/0 7/10 22/95 22.1/0 26/0
[9] = RP, Phenomenex Luna Omega Polar C18, 100 × 2.1 mm, 1.6 µm, 40 °C, 0.5 mL/min, estimated dead time 0.44 min; A: water + 0.1% formic acid + 10 mM ammonium formate; B: acetonitrile; gradient (min/%B) 0/5 8/20 10/100 12/100 12.1/5 14/5
[10] = RP, 50 × 0.5 mm, 2.7 µm, 35 °C, 0.01 mL/min, estimated dead time 0.62 min; A: water + 0.1% formic acid, pH 3; B: acetonitrile + 0.1% formic acid, pH 3; gradient (min/%B) 0/5 12/95 14/95 16/5
[11] = RP, Waters ACQUITY UPLC HSS T3, 100 × 2.1 mm, 1.8 µm, 30 °C, 0.4 mL/min, estimated dead time 0.55 min; A: water + 0.1% formic acid, pH 3; B: acetonitrile + 0.1% formic acid, pH 3; gradient (min/%B) 0/0 2/0 15/100 22/100 22.1/0 26/0
[12] = RP, Phenomenex Synergi Hydro-RP, 150 × 2 mm, 4 µm, 30 °C, 0.5 mL/min, estimated dead time 0.6 min; A: water + 0.1% formic acid, pH 3; B: acetonitrile + 0.1% formic acid, pH 3; gradient (min/%B) 0/5 1/5 35/45 40/100 45/100
[13] = RP, 100 × 0.5 mm, 2.7 µm, 45 °C, 0.015 mL/min, estimated dead time 0.83 min; A: water + 0.9% formic acid; B: acetonitrile + 0.9% formic acid; gradient (min/%B) 0/1 0.5/1 4/95 4.5/1 5/1
[14] = RP, Agilent InfinityLab Poroshell 120 EC-C18, 100 × 3 mm, 2.7 µm, 25 °C, 0.4 mL/min, estimated dead time 1.1 min; A: water + 0.1% formic acid, pH 3; B: acetonitrile + 0.1% formic acid, pH 3; gradient (min/%B) 0/5 10/25 20/40 24/90 25/90 26/5 30/5
[15] = RP, Phenomenex Luna Omega Polar C18, 100 × 2.1 mm, 1.6 µm, 40 °C, 0.5 mL/min, estimated dead time 0.44 min; A: water + 0.5% formic acid; B: acetonitrile + 0.5% formic acid; gradient (min/%B) 0/5 3/50 3.1/100 5/100 5.1/5 7/5
[16] = RP, Agilent ZORBAX RRHD Eclipse Plus C18, 50 × 2.1 mm, 1.8 µm, 30 °C, 0.4 mL/min, estimated dead time 0.28 min; A: water + 0.1% formic acid, pH 3; B: acetonitrile + 0.1% formic acid, pH 3; gradient (min/%B) 0/1 5/10 8/25 9.1/99 10/99 12/1
[17] = RP, Agilent ZORBAX RRHD Eclipse Plus C18, 50 × 2.1 mm, 1.8 µm, 30 °C, 0.4 mL/min, estimated dead time 0.28 min; A: water + 0.1% formic acid, pH 3; B: acetonitrile + 0.1% formic acid, pH 3; gradient (min/%B) 0/1 5/10 8/25 9.1/99 10/99 12/99
[18] = RP, Waters ACQUITY UPLC HSS T3, 100 × 2.1 mm, 50 °C; A: water + 0.1% formic acid, pH 3; B: 30% methanol + 70% acetonitrile + 0.1% formic acid, pH 3; gradient (min/%B) 0/5 1/8 2/15 3/40 4/70 4.5/100 5/100 6.4/100 6.6/5 6.8/5 7/5

Row | Structure (SMILES) | LC retention time [1] [min] | LC retention time [2] [min] | LC retention time [3] [min] | LC retention time [4] [min] | LC retention time [5] [min] | LC retention time [6] [min] | LC retention time [7] [min] | LC retention time [8] [min] | LC retention time [9] [min] | LC retention time [10] [min] | LC retention time [11] [min] | LC retention time [12] [min] | LC retention time [13] [min] | LC retention time [14] [min] | LC retention time [15] [min] | LC retention time [16] [min] | LC retention time [17] [min] | LC retention time [18] [min]
1 | O=c1ccc2c(O)c3ccoc3cc2o1 [Bergaptol] | – | 37.6 | 6.04 | 17.9 | – | – | – | 14.7 | 9.43 | 5.42 | 11 | 21.6 | 3.08 | 13.9 | 3.25 | – | – | –
2 | CC12CCc3occc3C1CCC13CC(CCC12)C(O)(CO)C3 (configuration not stated) [Cafestol] | 3.19 | 50 | 9.33 | – | – | – | – | 17.5 | – | 8.2 | 13.9 | 37.9 | 4.04 | – | 2.42 | – | – | –
3 | COc1cc(C=CC(=O)CC(=O)C=Cc2ccc(O)c(OC)c2)ccc1O [Curcumin] | – | 48.7 | 8.13 | 13 | – | – | – | 18.2 | 10.1 | 7.99 | 13.6 | 37.7 | 3.75 | 22.9 | 3.84 | – | – | –
4 | O=C(O)CCc1ccc(O)c(O)c1 [Dihydrocaffeic acid] | 1.69 | 14.2 | 3.33 | 5.6 | – | 20.1 | – | 8.08 | 3.46 | 2.6 | 8.3 | 14.6 | 2.4 | 6.04 | 2.6 | 5.05 | 2.11 | –
5 | Oc1cc(O)c2c(c1)OC1(c3ccc(O)c(O)c3)Oc3cc(O)c4c(c3C2C1O)OC(c1ccc(O)c(O)c1)C(O)C4 (configuration not stated) [Procyanidin A2] | – | 24.4 | 4.3 | – | – | – | – | 13.1 | 8.12 | 4.38 | 9.38 | 16 | 2.53 | 9.7 | 2.41 | 8.05 | – | –
6 | O=S(=O)(O)Oc1c(O)cccc1O [Pyrogallol 2-O-sulfate] | – | 18.4 | 1.76 | 7.61 | – | – | – | – | 1.61 | 1.4 | 6.13 | – | 2.2 | 3.99 | 1.49 | 2.36 | 1.34 | –
7 | Cn1cnc2c1c(=O)[nH]c(=O)n2C [Theobromine] | 1.39 | 6.29 | 2.49 | 2.67 | – | – | – | 4.4 | – | 1.77 | 7.1 | – | 2.05 | 3.25 | 1.45 | – | – | 2.12
8 | C[n+]1cccc(C(=O)[O-])c1 [Trigonelline] | – | – | – | 1.03 | – | – | – | 0.62 | – | 0.771 | 0.96 | – | 2.72 | – | 0.58 | – | – | –
9 | COc1ccc(C(=O)O)cc1OC [Veratric acid] | – | 24.9 | 4.84 | – | – | 33 | – | 12 | 6.87 | 4.19 | 9.65 | – | 2.4 | 9.51 | – | – | – | –

Other lines, results leading:

Row | LC retention time [1] [min] | LC retention time [2] [min] | LC retention time [3] [min] | LC retention time [4] [min] | LC retention time [5] [min] | LC retention time [6] [min] | LC retention time [7] [min] | LC retention time [8] [min] | LC retention time [9] [min] | LC retention time [10] [min] | LC retention time [11] [min] | LC retention time [12] [min] | LC retention time [13] [min] | LC retention time [14] [min] | LC retention time [15] [min] | LC retention time [16] [min] | LC retention time [17] [min] | LC retention time [18] [min] | Structure (SMILES)
10 | 1.76 | 14.7 | 3.26 | 5.41 | 4.34 | 20.4 | 4.61 | 7.43 | 3.36 | 2.53 | 8.37 | 11.9 | 2.71 | 6.13 | 1.15 | – | – | – | O=C(O)Cc1ccc(O)cc1 [4-Hydroxyphenylacetic acid]
11 | – | 27.4 | 5.52 | 15.2 | – | – | – | 13.7 | 8.58 | 4.81 | 9.51 | 17.4 | 2.39 | 10.5 | 2.53 | 8.37 | 8.79 | – | O=C(O)C1OC(Oc2c(-c3ccc(O)cc3)oc3cc(O)cc(O)c3c2=O)C(O)C(O)C1O (configuration not stated) [Kaempferol-3-O-glucuronide]
12 | 2.09 | 19.9 | 4.09 | 6.46 | – | 26 | – | 10.4 | 5.01 | 3.41 | 9.17 | 11.7 | 2.32 | 7.93 | 2.19 | 6.75 | 6.26 | – | O=C(O)CCc1ccc(O)cc1 [Phloretic acid]
13 | – | 44.4 | 7.19 | 22.6 | – | – | – | 16 | 9.78 | 6.54 | 12.2 | – | 3.47 | 18.8 | 3.72 | – | – | – | O=c1oc2cc(O)ccc2c2ccccc12 [Urolithin B]

Reference: the RepoRT retention time repository (doi:10.1016/j.foodchem.2021.129757)
